Structures are written as SMILES.

The results in this text go back to patent publication US20200255884A1, “METHOD OF DETECTION OF DNA END(S) AND ITS USE” (INTODNA SP. Z O.O., priority 2017, published 2020).

This assay has as its system HeLa 21-4 cells. Put plainly: Procedure 1 on HeLa cells in suspension with subsequent isolation of chromatin, fluorescence spectrophotometer. In kind it is cell-based. The settings on record: H2O2 4 mM, 30 minutes. How it is done:
In this Example, HeLa 21-4 cells (obtained from P.R. Cook, University of Oxford) were seeded on 6-well plates and cultured for 48 hours in DMEM supplemented with 10% FBS until the culture reached 100% confluency (number of cells: 1.2×10^6 per 1 well). Next, cells were treated with the DNA damaging agent H2O2 which was added directly to the growth medium (final concentration: 4 mM). The cells were incubated at 37° C. for 30 minutes in the standard cell culture incubator with CO2 level control. The control, untreated cells and the damaged cells (H2O2) were then harvested using 0.5 ml trypsin and transferred to 1.5 ml eppendorf tubes. Afterwards, trypsin was inactivated by adding 0.5 ml DMEM supplemented with 10% FBS. Subsequently, cells were spun down in the table top centrifuge (Eppendorf centrifuge, 5417 C, rotor: F45-30-11) (1700 rpm, 5 minutes, room temperature). The cell pellet was resuspended in PBS and again spun down (this washing step was repeated twice). When the supernatant PBS was discarded, cells were resuspended in the remaining droplet of PBS. Subsequently, ice-cold 70% Et(OH) was added dropwise, and cells were incubated in Et(OH) for 30 minutes in −20° C. Then, the cells were treated according to Procedure 1, wherein steps 1, 3, 4, 9 were omitted, and every washing step and every incubation were followed by centrifugation. BrdU was linked to free ends of DNA using TdT enzyme using APO-BRDU kit (Phoenix Flow Systems, AU: 1001) according to the supplier's instructions. […] The fluorescence signal was generated using Duolink® In Situ Detection Reagents Green (Sigma, DUO92014). […]
The level of fluorescence intensity of the cell extract obtained from untreated control cells and the H2O2 damaged cells was measured using a fluorescence spectrophotometer (Hitachi F-7000 supplied with Xe lamp). The fluorescence intensity was measured for 30 s (excitation 480 nm, emission 520 nm).

Regarding `OO` [H2O2], where the note is “cell extract”, the “fluorescence intensity per 1 ng of DNA” value is recorded as 3.2±0.3×10^−4 a.u and the “flurescence signal per 1 ng of DNA” value was 3.2 ± 0.3 × 10^−4 a.u./ng. The fluorescence signal (extract volume 40 μl, excitation 480 nm, emission 520 nm) is given as 0.046 ± 0.005 a.u.
